Laboratory results from patent publication US20110028554A1, “PHARMACEUTICAL COMPOSITIONS COMPRISING DIIODOTHYRONINE AND THEIR THERAPEUTIC USE” (UNIVERSITE JOSEPH FOURIER, priority 2007, published 2011).

Assays:
[1] = normal rats, high-fat diet, daily peritoneal injection; cited from earlier work
[2] = Blood glucose in Goto-Kakizaki (GK) rats; format: in vivo; details: low dosage 2.5 μg/100 g BW, 10 days, n=5, p<0.01
Experimental: Rats were genetically obese normoglycemic (Zucker or Fa/Fa), 10-11 week-old diabetic rats (ZDF) or genetic non-overweight diabetic (type 2 diabetes) rats (Goto-Kakizaki (GK) model).
The day of the study, after a fasted period overnight (18 h), blood samplings will be taken in awake rats from the tail vein.
(§1) Glucose and 3-hydroxybutyrate (3-HB) were measured, enzymatically and non esterified fatty acid (NEFA) by colorimetric assay (Wako Chemicals).

[3] = Body weight, adipose and lean tissue weight and core temperature in ZDF rats; format: in vivo, Zucker Diabetic fatty (ZDF) rats; details: high dose 25 μg/100 g BW
Experimental: Adult male rat bred in the animal room facilities of Laboratory of Fundamental and Applied. Bioenergetics (Wistar strain) or purchased from Charles-River Laboratories, Domaine des oncins, L'ARBRESLE France [(genetically obese normoglycemic (Zucker or Fa/Fa) or diabetic (ZDF)] were caged individually in stainless steel hanging cages and maintained in a 22° C., 50±10% relative humidity and 12 h:12 h light:dark environment. All animals were fed ad libitum with a standard rat chow (Safe A04, Villemoisson, France) and tap water. Body mass and food intake were recorded twice/thrice a week and fresh food was provided, at the same time to ensure minimal disturbance to the animals' food, behavior.
Eight-week old rats (300 g±10 g) were anesthetized by simultaneous intraperitoneal injection of diazepam 4 mg/kg and ketamine 100 mg/kg. In order to maintain body temperature during the surgery (10 min), animals were placed on a warm blanket. After interscapular shaving, a small incision of 0.5 cm of the skin allows the subcutaneous implantation of a small pellet (containing rT3 or 3′,3-T2) with a 10-gauge precision trochar. The pellets, manufactured by Innovative Research of America (Sarasota, Fla., USA) are constituted of a biodegradable matrix that effectively and continuously release the active product in the animal.
3-5 diiodothyronine (3-5 T2) or 3-3′diiodothyronine (3-3′ T2) were used at different doses (5, 0.5, or 0.1 mg/pellet) were implanted in order to provide a continuous and constant drug delivery over 60 days (which represents 25 μg, 2.5 μg or 0.5 μg/day/100 g BW).

[4] = Plasmatic concentrations of glucose, triglycerides, cholesterol, FFA and HDL on the day of sacrifice; format: in vivo, Wistar, Zucker and ZDF rats
Description: These measurements were done on venous blood of the rats the day of the sacrifice.
At the end of the experimental period, animals were sacrificed by decapitation, in order to avoid the well-known effects of general anesthetics on mitochondrial metabolism. Blood, samples were immediately collected and plasma was frozen for subsequent determination of serum metabolites and hormones. Liver, muscles and fat depots were quickly excised and weighed. Liver median lobe was rapidly freeze-clamped. Muscles (plantaris, soleus and gastrocnemius) were frozen in isopentane precooled in liquid nitrogen. Mesenteric fat consisted, of adipose tissue surrounding the gastro-intestinal tract from the gastro-oesophageal sphincter to the end of the rectum with special care taken in distinguishing and removing the pancreas. Retroperitoneal fat pad was taken as the distinct depot behind each kidney along the lumbar muscles. Epididymal fat consisted, of adipose tissue on top of the epididymis. For subcutaneous depot measurement, a rectangular piece of skin was taken on the right side of each animal from the median line of the abdomen between the spine and the right hip to the first rib. Interscapular brown adipose tissue was removed and dissected free from adjacent muscles and white adipose tissue. The heart ventricles, the right kidney and the spleen were also excised, weighed and frozen.
as §1
Triglycerides and cholesterol were measured by classical routine automate apparatus.

liver mitochondria = test: Liver mitochondrial oxygen consumption (JO2) of treated Wistar rats; format: in vivo; details: for Liver mitochondrial respiratory rate, phosphorylating condition (state 3), vs placebo: all substrates
Experimental: All measurements were performed using mitochondria (1.0 mg mitochondrial protein/ml) incubated with various substrates: • GM: glutamate/malate (5 mM/2.5 mM) • SR: succinate/rotenone (5 mM/5 μM), • GMS: glutamate/malate/succinate (5 mM/2.5 mM/5 mM), • Palm: palmitoyl carnitine (55 μM), • Octa: octanoyl carnitine (100 μM), • TMPD/AsC: TMPD/ascorbate (0.5 mM/0.5 mM), and • TMPD/AsC/DNP: TMPD/ascorbate/DNP (0.5 mM/0.5 mM/75 μM).
JO2 was recorded in the presence of the substrate and following the addition of 1 mM ADP (adenosine diphosphate) (state 3).
The oligomycin was added to the mitochondrial suspension to determine the non-phosphorylating respiratory-rate (state 4).
The major part of the liver and the red part of each quadriceps were rinsed, and chopped into isolation medium (250 mM sucrose, 20 mM Tris-HCl and 1 mM EGTA-Tris, pH 7.4). Nuclei and cell debris were removed, by centrifugation at 800 g for 10 min. Mitochondria were then isolated from the supernatant by spinning twice at 8,000 g for 10 minutes. The mitochondrial pellet was resuspended in 0.5 ml of isolation buffer and kept on ice. Mitochondrial protein was measured by the bicinchoninic acid method (Pierce, Rockford, Ill.). The final mitochondrial suspensions were maintained on ice and were used for measurements of oxygen consumption rate and reactive oxygen species (ROS) production.
The rate of mitochondrial oxygen consumption (JO2) was measured at 30° C. in an incubation chamber with a Clark-type O2 electrode filled with 2 ml of incubation medium (125 mM KCl, 10 mM Pi-Tris, 20 mM Tris-HCl, 0.1 mM EGTA, pH 7.2). All measurements were performed using mitochondria (1.0 or 0.2 mg mitochondrial protein/ml for liver and skeletal muscle) incubated either with various substrates: glutamate/malate (5 mM/2.5 mM) and succinate (5 mM), alone or in combination, palmitoyl carnitine (55 μM) and octanoyl carnitine (100 μM). For each substrate, JO2 was recorded in the presence of the substrate alone (State 2) and following the addition of 1 mM ADP (state 3). Oligomycin (1.25 μg/mg protein) was added to the mitochondrial suspension to determine the non-phosphorylating respiratory rate (state 4). The incubation medium was constantly stirred with a built-in electromagnetic stirrer and bar flea. The efficiency of the mitochondrial oxidative phosphorylation was assessed by the state 3/state 4 ratio which measures the degree of control imposed on oxidation by phosphorylation (respiratory control ratio, RCR).

In the case of N[C@@H](Cc1cc(I)c(Oc2ccc(O)cc2)c(I)c1)C(=O)O [3,5-T2, 3,5-diiodothyronine], the “Fat deposit vs untreated rats” value [1] is given as “less fat deposit”, the “Weight gain vs untreated rats” value [1] is given as “gained less weight” and the “Change in blood glucose concentration as compared to control animals” value [2] is given as −24±6%. The “Fat mass gain vs placebo” value ([3]; 4 weeks) was “less”, the “Lean body mass increase vs placebo” value ([3]; 4 weeks) was “higher” and the “Core temperature vs placebo” value ([3]; 15 days) was “higher as compared to placebo”. The “Plasmatic glucose at the end of the treatment” value ([4]; non-diabetic Wistar rats, low dosage 2.5 μg/100 g BW) was “minor changes”, the “Plasmatic glucose at the end of the treatment” value ([4]; non-diabetic Zucker rats, 25 μg/100 g BW) was “minor changes” and the “Liver mitochondrial respiratory rate, non-phosphorylating (state 4, oligomycin), vs placebo” value (liver mitochondria; high dosage 25 μg/100 g BW) was “substantially higher in the low 3,5-T2 group only”. For the same compound, the “Liver mitochondrial respiratory rate, phosphorylating condition (state 3), vs placebo” value (liver mitochondria; high dosage 25 μg/100 g BW) was “very significant increased respiratory rate”, the “Liver mitochondrial respiratory rate, non-phosphorylating (state 4, oligomycin), vs placebo” value (liver mitochondria; low dosage 2.5 μg/100 g BW) was “substantially higher” and the “Liver mitochondrial respiratory rate, phosphorylating condition (state 3), vs placebo” value (liver mitochondria; low dosage 2.5 μg/100 g BW) was “very significant increased respiratory rate”.
